Data reported in patent publication US20200017495A1, “NOVEL HETEROCYCLIC COMPOUNDS AND THEIR USE IN PREVENTING OR TREATING BACTERIAL INFECTIONS” (priority 2017, published 2020).
Where two headings read alike, the source gives them in different places.

What was measured:
[1] = system: Escherichia coli (ECO) isolates; experiment: MIC of compounds alone and combined with antibacterials, broth microdilution (CLSI); format: cell-based
Summary of the method: (§1)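 Broth microdilution in cation-adjusted Mueller-Hinton broth, inoculum 5.10^5 CFU/mL, 16-20 h at 35° C in ambient air, on genotyped isolates. Compound MIC, alone or with an antibacterial, taken visually as lowest concentration preventing growth; antibacterial MIC determined at each compound concentration.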

[2] = system: Enterobacter cloacae (ECL) isolates; experiment: as above; format: cell-based
Summary of the method: as §1

CC1(C)S[C@@H]2[C@H](NC(=O)[C@H](N)c3ccc(O)cc3)C(=O)N2[C@H]1C(=O)O [AMX, Amoxicillin]
MIC ([1]; strain ECO UFR16, genotype TEM-1, CTX-M-15, OXA-1, OXA-48): >256 µg/mL
MIC ([1]; strain ECO UFR17, genotype TEM-1, CTX-M-15, CMY-2, OXA-1, OXA-181): >256 µg/mL
MIC ([1]; strain ECO UFR18, genotype CTX-M-15, OXA-204): >256 µg/mL
MIC ([1]; strain ECO UFR19, genotype CTX-M-15, CMY-2, OXA-1, OXA-204): >256 µg/mL
MIC ([1]; strain ECO UFR20, genotype SHV-1, CTX-M-15, OXA-1, OXA-232): >256 µg/mL
MIC ([1]; strain ECO UFR32, genotype TEM-1, VEB-1, OXA-10): >256 µg/mL
MIC ([1]; strain ECO UFR39, genotype CTX-M-15, NDM-1): >1024 µg/mL
MIC ([1]; strain ECO UFR41, genotype TEM-1, CTX-M-15, CMY-2, OXA-1, NDM-4): >256 µg/mL
MIC ([1]; strain ECO UFR45, genotype TEM-1, CMY-4, OXA-1, OXA-48, VIM-1): >256 µg/mL
MIC ([1]; strain ECO UFR52, genotype TEM-1, SHV-12, IMP-8): >256 µg/mL
MIC ([1]; strain ECO UFR61O, genotype TEM-1, KPC-2): >256 µg/mL
MIC ([1]; strain ECO UFR62, genotype TEM-1, CTX-M-9, KPC-2): >256 µg/mL
MIC ([1]; strain ECO UFR74, genotype SHV-1, DHA-1): >256 µg/mL
MIC ([1]; strain ECO UFR86, genotype ompC-, ompF-): 16 µg/mL
MIC ([1]; strain ECO UFR174, genotype TEM-1, KPC-2, OXA-1): >128 µg/mL
MIC ([1]; strain ECO UFR175, genotype TEM-1, KPC-2, OXA-9): >128 µg/mL
MIC ([1]; strain ECO UFR176, genotype KPC-3, OXA-9*): >128 µg/mL
MIC ([1]; strain ECO UFR177, genotype TEM-1, CTX-M-15, OXA-1, OXA-2, NDM-1, RmtC, antibiotic alone): >128 µg/mL
MIC ([1]; strain ECO UFR178, genotype TEM-1, CTX-M-15, OXA-9, NDM-1, antibiotic alone): >128 µg/mL
MIC ([1]; strain ECO UFR179, genotype TEM-1, SHV-12, CTX-M-15, NDM-1, antibiotic alone): >128 µg/mL
MIC ([1]; strain ECO UFR180, genotype TEM-1, CMY-30, OXA-1, NDM-1, antibiotic alone): >128 µg/mL
MIC ([1]; strain ECO UFR181, genotype TEM-1, CTX-M-15, NDM-5, antibiotic alone): >128 µg/mL
MIC ([1]; strain ECO UFR182, genotype CTX-M-15, OXA-1, NDM-6, antibiotic alone): >128 µg/mL
MIC ([1]; strain ECO UFR183, genotype CTX-M-15, OXA-1, NDM-7, antibiotic alone): >128 µg/mL
MIC ([1]; strain ECO UFR184, genotype CTX-M-15, CMY-4, OXA-1, OXA-204): >128 µg/mL
MIC ([1]; strain ECO UFR185, genotype OXA-48): >128 µg/mL
MIC ([1]; strain ECO UFR186, genotype TEM-1, CTX-M-14, OXA-48): >128 µg/mL
MIC ([1]; strain ECO UFR187, genotype CTX-M-15, OXA-48): >128 µg/mL
MIC ([1]; strain ECO UFR189, genotype TEM-1, CTX-M-15, OXA-48): >128 µg/mL
MIC ([1]; strain ECO UFR190, genotype CTX-M-24, OXA-48): >128 µg/mL
MIC ([1]; strain ECO UFR191, genotype TEM-1, CTX-M-24, OXA-48): >128 µg/mL
MIC ([1]; strain ECO UFR204, genotype TEM-1, CMY-4, OXA-48, VIM-1, antibiotic alone): >128 µg/mL
MIC ([1]; strain ECO UFR205, genotype CTX-M-15, VIM-4, antibiotic alone): >128 µg/mL
MIC ([1]; strain ECO UFR206, genotype TEM-1, CTX-M-15, OXA-1, VIM-4, antibiotic alone): >128 µg/mL
MIC ([1]; strain ECO UFR207, genotype CTX-M-15): >128 µg/mL
MIC ([1]; strain ECO UFR208, genotype SHV-12): >128 µg/mL
MIC ([1]; strain ECO UFR209, genotype TEM-1, CTX-M-15): >128 µg/mL
MIC ([1]; strain ECO UFR210, genotype SHV-12): >128 µg/mL
MIC ([1]; strain ECO UFR211, genotype TEM-24): >128 µg/mL
MIC ([1]; strain ECO UFR212, genotype CMY-2): >128 µg/mL
MIC ([1]; strain ECO UFR218, genotype TEM-1, SHV-1, CTX-M-15): >128 µg/mL
MIC ([1]; strain ECO UFR252GO, genotype VIM-2, antibiotic alone): >128 µg/mL
MIC ([1]; strain ECO UFR255, genotype NDM-1, antibiotic alone): >128 µg/mL
MIC ATB in combination [2]: >128 µg/mL
MIC ATB in combination ([2]; ECL 190408, AF2 @ 8 μg/mL): <=0.25 μg/mL
MIC ATB in combination ([2]; ECL 200322, AF2 @ 8 μg/mL): <0.25 µg/mL
MIC ATB in combination ([2]; ECL 260253, AF2 @ 8 μg/mL): <0.25 µg/mL
MIC ATB in combination ([2]; ECL 260323, AF2 @ 8 μg/mL): <0.25 µg/mL
MIC ATB in combination ([2]; ECL 260508, AF2 @ 8 μg/mL): <0.25 µg/mL
MIC ATB in combination ([2]; ECL P99, CLA @ 4 μg/mL): >512 µg/mL
MIC ATB in combination ([2]; ECL UFR12, AF2 @ 8 μg/mL): <0.25 µg/mL
MIC ATB in combination ([2]; ECL UFR38, AF2 @ 8 μg/mL): <=0.25 μg/mL
MIC ATB in combination ([2]; ECL UFR51, AF2 @ 8 μg/mL): <0.25 µg/mL
MIC ATB in combination ([2]; ECL UFR70, AF2 @ 8 μg/mL): 0.5 µg/mL
MIC ATB in combination ([2]; ECL UFR85, AF2 @ 8 μg/mL): <0.25 µg/mL
MIC ([2]; strain ECL 2185D, genotype OXA-163): >256 µg/mL
MIC ([2]; strain ECL 190310, genotype AmpC): >256 µg/mL
MIC ([2]; strain ECL 190408, genotype TEM-1, CTX-M-15, OXA-1): >256 µg/mL
MIC ([2]; strain ECL 200138, genotype AmpC): >256 µg/mL
MIC ([2]; strain ECL 200322, genotype TEM-1, CTX-M-15, OXA-1): >256 µg/mL
MIC ([2]; strain ECL 260033, genotype AmpC): >256 µg/mL
MIC ([2]; strain ECL 260253, genotype TEM-1, KPC-3): >256 µg/mL
MIC ([2]; strain ECL 260323, genotype AmpC): >256 µg/mL
MIC ([2]; strain ECL 260508, genotype TEM-1, CTX-M-15): >256 µg/mL
MIC ([2]; strain ECL HAN, genotype OXA-35): >256 µg/mL
MIC ([2]; strain ECL NEM146383, genotype AmpC): >256 µg/mL
MIC ([2]; strain ECL P99, genotype AmpC): >1024 µg/mL
MIC ([2]; strain ECL UFR12, genotype CTX-M-9, OXA-48): >256 µg/mL
MIC ([2]; strain ECL UFR13, genotype TEM-1, SHV-12, CTX-M-9, OXA-48): >256 µg/mL
MIC ([2]; strain ECL UFR14, genotype TEM-1, SHV-12, CTX-M-15, DHA-1, OXA-1, OXA-48): >256 µg/mL
MIC ([2]; strain ECL UFR38, genotype CTX-M-15, NDM-1): >256 µg/mL
MIC ([2]; strain ECL UFR51, genotype SHV-12, IMP-8): >256 µg/mL
MIC ([2]; strain ECL UFR60, genotype TEM-1, CTX-M-15, KPC-2): >256 µg/mL
MIC ([2]; strain ECL UFR70, genotype TEM-1, CTX-M-15, CMY-2, OXA-1, Porin loss): >256 µg/mL
MIC ([2]; strain ECL UFR84, genotype TEM-1, AmpC, OXA-1): >256 µg/mL
MIC ([2]; strain ECL UFR85, genotype TEM-1, CTX-M-15, AmpC): >256 µg/mL
MIC ([2]; strain ECL UFR192, genotype TEM-1, NDM-1, antibiotic alone): >128 µg/mL
MIC ([2]; strain ECL UFR193, genotype TEM-1, CTX-M-15, OXA-1, NDM-1, RmtC, antibiotic alone): >128 µg/mL
MIC ([2]; strain ECL UFR194, genotype OXA-48): >128 µg/mL
MIC ([2]; strain ECL UFR195, genotype TEM-1, CTX-M-15, OXA-1, OXA-48): >128 µg/mL
MIC ([2]; strain ECL UFR196, genotype TEM-1, CTX-M-15, OXA-1, OXA-48): >128 µg/mL
MIC ([2]; strain ECL UFR197, genotype TEM-1, CTX-M-15, OXA-1, OXA-48): >128 µg/mL
MIC ([2]; strain ECL UFR198, genotype TEM-1, SHV-12, CTX-M-15, DHA-1, OXA-1, OXA-48): >128 µg/mL
MIC ([2]; strain ECL UFR200, genotype TEM-1, SHV-12, KPC-2): >128 µg/mL
MIC ([2]; strain ECL UFR203, genotype TEM-1, SHV-12, VIM-1, antibiotic alone): >128 µg/mL
MIC ([2]; strain ECL UFR214, genotype TEM-1, SHV-31, CTX-M-15, VIM-4, antibiotic alone): >128 µg/mL
MIC ([2]; strain ECL UFR252PT, genotype VIM-2, antibiotic alone): >128 µg/mL
